Test results published in patent publication US20120094995A1, “2-AZA-BICYCLO[2.2.1]HEPTANE COMPOUNDS AND USES THEREOF” (ASTRAZENECA AB, priority 2009, published 2012).

Target: T1, human GlyT1b (Homo sapiens, UniProt P48067)
T1 construct: expressed in transfected cells
T1 sequence (P48067 1-652 isoform P48067-3): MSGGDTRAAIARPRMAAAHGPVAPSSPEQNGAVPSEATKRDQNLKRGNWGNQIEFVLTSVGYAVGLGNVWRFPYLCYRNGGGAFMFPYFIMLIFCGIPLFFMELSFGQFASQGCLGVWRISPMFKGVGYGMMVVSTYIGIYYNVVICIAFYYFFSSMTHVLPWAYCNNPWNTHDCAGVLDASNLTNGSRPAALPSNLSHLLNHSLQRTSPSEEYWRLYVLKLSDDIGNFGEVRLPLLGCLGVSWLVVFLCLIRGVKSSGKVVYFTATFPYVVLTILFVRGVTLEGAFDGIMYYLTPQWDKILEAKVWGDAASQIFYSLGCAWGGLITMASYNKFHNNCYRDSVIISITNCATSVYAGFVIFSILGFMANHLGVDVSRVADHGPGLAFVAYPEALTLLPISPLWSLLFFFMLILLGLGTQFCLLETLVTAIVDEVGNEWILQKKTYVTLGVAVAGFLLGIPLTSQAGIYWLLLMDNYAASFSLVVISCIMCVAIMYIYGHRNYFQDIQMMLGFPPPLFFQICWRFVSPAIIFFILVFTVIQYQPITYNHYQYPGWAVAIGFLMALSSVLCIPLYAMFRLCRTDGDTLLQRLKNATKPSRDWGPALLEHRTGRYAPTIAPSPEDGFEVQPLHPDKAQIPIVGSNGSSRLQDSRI
Assay: [3H] Glycine Uptake Assay (SPA) in recombinant hGlyT1b-CHO cells
Format: cell-based
Procedure: A. [3H] Glycine Uptake Assay
Preparation of recombinant human GlyT1b-CHO cells (hGlyT1b-CHO). The human GlyT1b CDS (GC002087, NM_006934) was cloned downstream of a CMV promoter in a bicistronic expression vector containing a hygromycin B resistance gene. CHO-K1 cells (ATCC) were transfected with the recombinant vector containing GlyT1b using Lipofectamine 2000 (Invitrogen) and cultured in Ham's/F12 media supplemented with 10% fetal bovine serum, 2 mM L-glutamine at 37° C., 5% CO2, 90% humidity. Twenty-four hours after transfection, cells were diluted and switched to media containing 0.5 mg/ml hygromycin B. Antibiotic resistant cells were obtained after 21 days of culture in the presence of hygromycin B. Clonal stable cell lines were isolated by FACS single cell deposition into 96-well plates.
Cells used were Recombinant hGlyT1b/CHO. These cells were cultured in cell culture medium (Ham's/F12 (Modified) (Mediatech, 10-080-CM), containing 10% FBS, 2 mM L-glutamine (Invitrogen 25030-149) and 0.5 mg/mL hygromycin B (Invitrogen, 10687-010)) in 175 cm^2 flasks until near confluence before use in the assay.
Cell medium in a cell culture flask containing near confluent cells was removed and 5 mL of cell stripper was added to submerge all cells on the surface of the culture flask. Cell stripper was removed immediately and the flask incubated in a 37° C. incubator for ˜5 min. Cells were shaken loose and suspended in 5 mL of PBS. After splitting cells to initiate a new flask(s), the cells remaining were collected by centrifugation, counted, and resuspended in assay buffer to a density of ˜2 million/mL. The cell suspension was kept at room temperature before use. The assays buffer was 10 mM HEPES, pH 7.4, containing 150 mM NaCl, 5 mM KCl, 1.5 mM CaCl2, 1.5 mM MgCl2, 0.45 mg/mL L-alanine (added fresh), and 1.8 mg/mL D-glucose (added fresh).
WGA PTV beads were suspended in assay buffer (2 mg/ml) containing 60 nM [^3H]Glycine (PerkinElmer (NET-004, [2-^3H]Glycine, 53.3 Ci/mmol, 1 mCi/mL)) and 20 μM unlabeled glycine and the suspension was kept at room temperature before assay.
To the wells of an OptiPlate, 2 μl DMSO containing a test compound was spotted. This was followed by addition of 98 μl of cell suspension (˜1 million/ml final). After incubating cells with compound for ˜15 min, 100 μl of the SPA (200 μg/well final) and isotope mixture (30 nM isotope with 10 μM cold glycine, final) was added to initiate the glycine uptake. At 2 h, the plate was read on a TopCount to quantify SPA counts.

## CSc1ncccc1C(=O)NC(c1ccccc1)C12CCC(CC1)N2C (single isomer, unassigned) [Example 2, (R*)—N-((7-methyl-7-azabicyclo[2.2.1]heptan-1-y)(phenyl)methyl)-2-(methylthio)nicotinamide]
Table 1
  IC50: 168 nM

## COCCN1C2CCC1(C(NC(=O)c1c(C)cccc1C)c1ccncc1)CC2 (single isomer, unassigned) [Example 6, (R*)—N-((7-(2-methoxyethyl)-7-azabicyclo[2.2.1]heptan-1-yl)(pyridin-4-yl)methyl)-2,6-dimethylbenzamide]
Table 1
  IC50: 26 nM

## Cc1cccc(F)c1C(=O)NC(c1ccccc1)C12CCC(CC1)N2C (single isomer, unassigned) [Example 7, 2-fluoro-6-methyl-N-((7-methyl-7-azabicyclo[2.2.1]heptan-1-yl)(phenyl)methyl)benzamide]
Table 1
  IC50: 62 nM

## CN1C2CCC1(C(NC(=O)c1cccc(Cl)c1Cl)c1ccccc1)CC2 (single isomer, unassigned) [Example 13, (R*)-2,3-dichloro-N-((7-methyl-7-azabicyclo[2.2.1]heptan-1-yl)(phenyl)methyl)benzamide]
Table 1
  IC50: 72 nM

## CN1C2CCC1([C@H](NC(=O)c1ccc(Cl)cc1Cl)c1ccccc1)CC2 (single isomer, unassigned) [Example 14, (R*)-2,4-dichloro-N((7-methy1-7-azabicyclo[2.2.1]heptan-1-yl)(phenyl)methyl)benzamide]
Table 1
  IC50: 305 nM

## CN1C2CCC1(C(NC(=O)c1ccnc(Cl)c1Cl)c1ccccc1)CC2 (single isomer, unassigned) [Example 15, (R*)-2,3-dichloro-N-((7-methyl-7-azabicyclo[2.2.1]heptan-1-yl)(phenyl)methyl)isonicotinamide]
Table 1
  IC50: 210 nM

## Cc1cccc(C)c1C(=O)NC(c1cccc(F)c1)C12CCC(CC1)N2C (single isomer, unassigned) [Example 45]
Table 2, unit from table title
  IC50: 175 nM

## Cc1cccc(C)c1C(=O)NC(c1cccc(F)c1)C12CCC(CC1)N2C (single isomer, unassigned) [Example 46]
Table 2, unit from table title
  IC50: 2 nM

## Cc1cccc(C)c1C(=O)NC(c1ccc(F)cc1)C12CCC(CC1)N2C (single isomer, unassigned) [Example 47]
Table 2, unit from table title
  IC50: 2 nM

## CSc1ncccc1C(=O)NC(c1ccccc1)C12CCC(CC1)N2C(C)C (single isomer, unassigned) [Example 53]
Table 2, unit from table title
  IC50: 24 nM

## CC(C)N1C2CCC1(C(NC(=O)c1c(Cl)cncc1Cl)c1ccccc1)CC2 (single isomer, unassigned) [Example 54]
Table 2, unit from table title
  IC50: 100 nM

## Cc1ccccc1C(=O)NC(c1ccccc1)C12CCC(CC1)N2C (single isomer, unassigned) [Example 59]
Table 2, unit from table title
  IC50: 38 nM

## Cc1cc(F)ccc1C(=O)NC(c1ccccc1)C12CCC(CC1)N2C (single isomer, unassigned) [Example 62]
Table 2, unit from table title
  IC50: 48 nM

## Cc1c(F)cccc1C(=O)NC(c1ccccc1)C12CCC(CC1)N2C (single isomer, unassigned) [Example 63]
Table 2, unit from table title
  IC50: 76 nM

## Cc1ccc(F)cc1C(=O)NC(c1ccccc1)C12CCC(CC1)N2C (single isomer, unassigned) [Example 64]
Table 2, unit from table title
  IC50: 125 nM

## CCN1C2CCC1(C(NC(=O)c1cccnc1SC)c1ccccc1)CC2 (single isomer, unassigned) [Example 73]
Table 2, unit from table title
  IC50: 46 nM

## Cc1cccc(C)c1C(=O)NC(c1cccnc1)C12CCC(CC1)N2C (single isomer, unassigned) [Example 74]
Table 2, unit from table title
  IC50: < 3 nM

## Cc1cccc(C)c1C(=O)NC(c1cccc(F)c1)C12CCC(CC1)N2 (single isomer, unassigned) [Example 75]
Table 2, unit from table title
  IC50: 7 nM

## Cc1cccc(C)c1C(=O)NC(c1cccc(F)c1)C12CCC(CC1)N2 (single isomer, unassigned) [Example 76]
Table 2, unit from table title
  IC50: 297 nM

## Cc1ccc(C(NC(=O)c2c(C)cccc2C)C23CCC(CC2)N3C)cn1 (single isomer, unassigned) [Example 77]
Table 2, unit from table title
  IC50: 71 nM

## Cc1cc(C(NC(=O)c2c(C)cccc2C)C23CCC(CC2)N3C)ccn1 (single isomer, unassigned) [Example 85]
Table 2, unit from table title
  IC50: 23 nM

## Cc1ccc(C(NC(=O)c2c(C)cccc2C)C23CCC(CC2)N3C)o1 (single isomer, unassigned) [Example 87]
Table 2, unit from table title
  IC50: 14 nM

## Cc1ccc(C(NC(=O)c2c(C)cccc2C)C23CCC(CC2)N3C)o1 (single isomer, unassigned) [Example 91]
Table 2, unit from table title
  IC50: 344 nM

## CSc1ncccc1C(=O)NC(c1ccncc1)C12CCC(CC1)N2C1CCC1 (single isomer, unassigned) [Example 101]
Table 2, unit from table title
  IC50: 160 nM

## Cc1cccc(C)c1C(=O)NC(c1cccc(Br)c1)C12CCC(CC1)N2C (centres unmarked) [Example 8, N-((3-bromophenyl)(7-methyl-7-azabicyclo[2.2.1]heptan-1-yl)methyl)-2,6-dimethylbenzamide]
Table 1
  IC50: 3 nM

## Cc1ccc(C(NC(=O)c2c(C)cccc2C)C23CCC(CC2)N3C)o1 (centres unmarked) [Example 9, 2,6-dimethyl-N-((7-methyl-7-azabicyclo[2.2.1]heptan-1-yl)(5-methylfuran-2-yl)methyl)benzamide]
Table 1
  IC50: 98 nM

## CSc1ncccc1C(=O)NC(c1ccccc1)C12CCC(CC1)N2C (centres unmarked) [Example 10, N-((7-methyl-7-azabicyclo[2.2.1]heptan-1-yl)(phenyl)methyl)-2-(methylthio)nicotinamide]
Table 1
  IC50: 145 nM

## COc1cccc(OC)c1C(=O)NC(c1ccccc1)C12CCC(CC1)N2C (centres unmarked) [Example 11, 2,6-dimethoxy-N-((7-methyl-7-azabicyclo[2.2.1]heptan-1-yl)(phenyl)methyl)benzamide]
Table 1
  IC50: 349 nM

## CN1C2CCC1(C(NC(=O)c1cccc(Cl)c1Cl)c1ccccc1)CC2 (centres unmarked) [Example 12, 2,3-dichloro-N-((7-methyl-7-azabicyclo[2.2.1]heptan-1-yl)(phenyl)methyl)benzamide]
Table 1
  IC50: 33.6 nM

## Cc1c(C(=O)NC(c2ccccc2)C23CCC(CC2)N3C)cccc1C(F)(F)F (centres unmarked) [Example 16, 2-methyl-N-((7-methyl-7-azabicyclo[2.2.1]heptan-1-yl)(phenyl)methyl)-3-(trifluoromethyl)benzamide]
Table 1
  IC50: 18.6 nM

## CN1C2CCC1(C(NC(=O)c1cccc(C(F)(F)F)c1Cl)c1ccccc1)CC2 (centres unmarked) [Example 17, 2-chloro-N-((7-methyl-7-azabicyclo[2.2.1]heptan-1-yl)(phenyl)methyl)-3-(trifluoromethyl)benzamide]
Table 1
  IC50: 17.9 nM

## CN1C2CCC1(C(NC(=O)c1cccc(C(F)(F)F)c1Cl)c1ccccc1)CC2 (centres unmarked) [Example 20]
Table 2, unit from table title
  IC50: 26 nM

## Cc1cccc(C)c1C(=O)NC(c1ccccc1)C12CCC(CC1)N2CC(C)C (centres unmarked) [Example 22]
Table 2, unit from table title
  IC50: 13 nM

## COCCN1C2CCC1([C@H](NC(=O)c1c(C)cccc1C)c1ccccc1)CC2 [Example 24]
Table 2, unit from table title
  IC50: 22 nM

## Cc1cccc(C)c1C(=O)N[C@H](c1ccccc1)C12CCC(CC1)N2Cc1ccccc1 [Example 25]
Table 2, unit from table title
  IC50: 174 nM

## Cc1cccc(C)c1C(=O)N[C@H](c1ccccc1)C12CCC(CC1)N2CC(C)C [Example 26]
Table 2, unit from table title
  IC50: 21 nM

## CCCCN1C2CCC1([C@H](NC(=O)c1c(C)cccc1C)c1ccccc1)CC2 [Example 27]
Table 2, unit from table title
  IC50: 11 nM

## COCCCN1C2CCC1([C@H](NC(=O)c1c(C)cccc1C)c1ccccc1)CC2 [Example 28]
Table 2, unit from table title
  IC50: 12 nM

## Cc1cccc(C)c1C(=O)N[C@H](c1ccccc1)C12CCC(CC1)N2CC1CCC1 [Example 29]
Table 2, unit from table title
  IC50: 9 nM

## Cc1cccc(C)c1C(=O)N[C@H](c1ccc(F)cc1)C12CCC(CC1)N2 [Example 30]
Table 2, unit from table title
  IC50: 93 nM

## Cc1cccc(C)c1C(=O)N[C@H](c1ccccc1)C12CCC(CC1)N2CCO [Example 34]
Table 2, unit from table title
  IC50: < 1.28 nM
